Test results as given in patent US6376497B1, “Antifungal azole derivatives having a fluorinated vinyl group and process for preparing same” (Korea Research Institute of Chemical Technology, priority 1999, dated 2002).
≈ marks a conversion by molar mass, not a printed value.

Legend:
Assay in all cases: In vitro antifungal activity, microbroth dilution MIC
Assay type in all cases: cell-based
[1] = system: Aspergillus furnigatus B. 19119; conditions: for Minimal inhibitory concentration(MIC), A furnigatus B. 19119: RPMI-1640, 35° C., no growth observed; for Minimal inhibitory concentration (MIC): A furnigatus B. 19119, RPMI-1640, 35° C., 4 to 48 hours
In short: (§1)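 Broth microdilution adapted from NCCLS M27, in RPMI-1640 with 0.165 M MOPS, pH 7.0. Yeast or mould inoculum at 2×10^3 CFU/ml was mixed 1:1 with DMSO-derived compound solutions (200 to 0.10 μg/ml before mixing) and incubated at 35 °C for 4 to 48 h. MIC was the concentration showing no growth.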

[2] = system: Aspergillus niger A. 16404; conditions: for Minimal inhibitory concentration(MIC), A. niger A. 16404: RPMI-1640, 35° C., no growth observed; for Minimal inhibitory concentration (MIC): A. niger A. 16404, RPMI-1640, 35° C., 4 to 48 hours
In short: as §1

[3] = system: Candida albicans A. 10231; conditions: 4 to 48 hours; for Minimal inhibitory concentration(MIC), C. albicans A. 10231: RPMI-1640, 35° C., no growth observed; for Minimal inhibitory concentration (MIC): C. albicans A. 10231, RPMI-1640, 35° C.
In short: as §1

Candida albicans C1-2 = conditions: 4 to 48 hours; for Minimal inhibitory concentration(MIC), C. albicans C1-2: RPMI-1640, 35° C., no growth observed; for Minimal inhibitory concentration (MIC): C. albicans C1-2, RPMI-1640, 35° C.
In short: as §1

[4] = system: Candida albicans IFO. 1385; conditions: 4 to 48 hours; for Minimal inhibitory concentration(MIC), C. albicans IFO. 1385: RPMI-1640, 35° C., no growth observed; for Minimal inhibitory concentration (MIC): C. albicans IFO. 1385, RPMI-1640, 35° C.
In short: as §1

Candida krusei K. 11655 = conditions: 4 to 48 hours; for Minimal inhibitory concentration(MIC), C. krusei K. 11655: RPMI-1640, 35° C., no growth observed; for Minimal inhibitory concentration (MIC): C. krusei K. 11655, RPMI-1640, 35° C.
In short: as §1

[5] = system: Candida parapsitosis A. 7330; conditions: 4 to 48 hours; for Minimal inhibitory concentration(MIC), C. parapsitosis A. 7330: RPMI-1640, 35° C., no growth observed; for Minimal inhibitory concentration (MIC): C. parapsitosis A. 7330, RPMI-1640, 35° C.
In short: as §1

[6] = system: Candida pseudotropicalis K. 11658; conditions: 4 to 48 hours; for Minimal inhibitory concentration(MIC), C. pseudotropicalis K. 11658: RPMI-1640, 35° C., no growth observed; for Minimal inhibitory concentration (MIC): C. pseudotropicalis K. 11658, RPMI-1640, 35° C.
In short: as §1

[7] = system: Candida tropicalis A. 13803; conditions: 4 to 48 hours; for Minimal inhibitory concentration(MIC), C. tropicalis A. 13803: RPMI-1640, 35° C., no growth observed; for Minimal inhibitory concentration (MIC): C. tropicalis A. 13803, RPMI-1640, 35° C.
In short: as §1

[8] = system: Cryptococcus neoformans A. 34144; conditions: for Minimal inhibitory concentration(MIC), Cry. neoformans A. 34144: RPMI-1640, 35° C., no growth observed; for Minimal inhibitory concentration (MIC): Cry. neoformans A. 34144, RPMI-1640, 35° C., 4 to 48 hours
In short: as §1

[9] = system: Cryptococcus neoformans B. 42419; conditions: 4 to 48 hours; for Minimal inhibitory concentration(MIC), Cry. neoformans B. 42419: RPMI-1640, 35° C., no growth observed; for Minimal inhibitory concentration (MIC): Cry. neoformans B. 42419, RPMI-1640, 35° C.
In short: as §1

[10] = system: Cryptococcus neoformans IFM. 40092; conditions: for Minimal inhibitory concentration(MIC), Cry. neoformans IFM. 40092: RPMI-1640, 35° C., no growth observed; for Minimal inhibitory concentration (MIC): Cry. neoformans IFM. 40092, RPMI-1640, 35° C., 4 to 48 hours
In short: as §1

[11] = system: Torulopsis glabrata B. 16205; conditions: 4 to 48 hours; for Minimal inhibitory concentration(MIC), T. glabrata B. 16205: RPMI-1640, 35° C., no growth observed; for Minimal inhibitory concentration (MIC): T. glabrata B. 16205, RPMI-1640, 35° C.
In short: as §1

[12] = system: Trichophyton mentagrophytes A. 9129; conditions: for Minimal inhibitory concentration(MIC), T. mentagrophytes A. 9129: RPMI-1640, 35° C., no growth observed; for Minimal inhibitory concentration (MIC): T. mentagrophytes A. 9129, RPMI-1640, 35° C., 4 to 48 hours
In short: as §1

[13] = system: Trichophyton mentagrophytes B. 32663; conditions: for Minimal inhibitory concentration(MIC), T. mentagrophytes B. 32663: RPMI-1640, 35° C., no growth observed; for Minimal inhibitory concentration (MIC): T. mentagrophytes B. 32663, RPMI-1640, 35° C., 4 to 48 hours
In short: as §1

SMILES | Minimal inhibitory concentration(MIC), A furnigatus B. 19119 [1] [µg/mL] | Minimal inhibitory concentration(MIC), A. niger A. 16404 [2] [µg/mL] | Minimal inhibitory concentration(MIC), C. albicans A. 10231 [3] [µg/mL] | Minimal inhibitory concentration(MIC), C. albicans C1-2 (Candida albicans C1-2) [µg/mL] | Minimal inhibitory concentration(MIC), C. albicans IFO. 1385 [4] [µg/mL] | Minimal inhibitory concentration (MIC) [1] [µg/mL] | Minimal inhibitory concentration (MIC) [2] [µg/mL] | Minimal inhibitory concentration (MIC) [3] [µg/mL] | Minimal inhibitory concentration (MIC) (Candida albicans C1-2) [µg/mL] | Minimal inhibitory concentration (MIC) [4] [µg/mL] | Minimal inhibitory concentration (MIC) (Candida krusei K. 11655) [µg/mL] | Minimal inhibitory concentration (MIC) [5] [µg/mL] | Minimal inhibitory concentration (MIC) [6] [µg/mL] | Minimal inhibitory concentration (MIC) [7] [µg/mL] | Minimal inhibitory concentration (MIC) [8] [µg/mL] | Minimal inhibitory concentration (MIC) [9] [µg/mL] | Minimal inhibitory concentration (MIC) [10] [µg/mL] | Minimal inhibitory concentration (MIC) [11] [µg/mL] | Minimal inhibitory concentration (MIC) [12] | Minimal inhibitory concentration (MIC) [13] [µg/mL] | also measured
FC(=C(c1ccc(F)cc1)C(F)(F)F)N1CCN(c2ccc(OCC3COC(Cn4ccnc4)(c4ccc(F)cc4F)O3)cc2)CC1 (mixture of isomers) [Ex. 148] | 6.25 | 100 | >100 | >100 | 0.39 | – | – | – | – | – | – | – | – | – | – | – | – | – | – | – | Minimal inhibitory concentration(MIC), C. krusei K. 11655 (Candida krusei K. 11655): 0.39 µg/mL; Minimal inhibitory concentration(MIC), C. parapsitosis A. 7330 [5]: 0.78 µg/mL; Minimal inhibitory concentration(MIC), C. pseudotropicalis K. 11658 [6]: 0.78 µg/mL; Minimal inhibitory concentration(MIC), C. tropicalis A. 13803 [7]: >100 µg/mL; Minimal inhibitory concentration(MIC), Cry. neoformans A. 34144 [8]: 0.78 µg/mL; Minimal inhibitory concentration(MIC), Cry. neoformans B. 42419 [9]: 0.78 µg/mL; Minimal inhibitory concentration(MIC), Cry. neoformans IFM. 40092 [10]: ≦0.10 μg/ml; Minimal inhibitory concentration(MIC), T. glabrata B. 16205 [11]: 50.0 µg/mL; Minimal inhibitory concentration(MIC), T. mentagrophytes A. 9129 [12]: 3.13 µg/mL; Minimal inhibitory concentration(MIC), T. mentagrophytes B. 32663 [13]: ≦0.10 μg/ml
FC(=C(c1ccc(Cl)cc1)C(F)(F)F)N1CCN(c2ccc(OCC3COC(Cn4ccnc4)(c4ccc(F)cc4F)O3)cc2)CC1 (mixture of isomers) [Ex. 149] | 6.25 | 100 | >100 | >100 | 0.39 | – | – | – | – | – | – | – | – | – | – | – | – | – | – | – | Minimal inhibitory concentration(MIC), C. krusei K. 11655 (Candida krusei K. 11655): 0.39 µg/mL; Minimal inhibitory concentration(MIC), C. parapsitosis A. 7330 [5]: 0.78 µg/mL; Minimal inhibitory concentration(MIC), C. pseudotropicalis K. 11658 [6]: 0.39 µg/mL; Minimal inhibitory concentration(MIC), C. tropicalis A. 13803 [7]: >100 µg/mL; Minimal inhibitory concentration(MIC), Cry. neoformans A. 34144 [8]: 0.78 µg/mL; Minimal inhibitory concentration(MIC), Cry. neoformans B. 42419 [9]: 0.39 µg/mL; Minimal inhibitory concentration(MIC), Cry. neoformans IFM. 40092 [10]: ≦0.10 μg/ml; Minimal inhibitory concentration(MIC), T. glabrata B. 16205 [11]: 50.0 µg/mL; Minimal inhibitory concentration(MIC), T. mentagrophytes A. 9129 [12]: 3.13 µg/mL; Minimal inhibitory concentration(MIC), T. mentagrophytes B. 32663 [13]: ≦0.10 μg/ml
FC(=C(c1cc(Cl)cc(Cl)c1)C(F)(F)F)N1CCN(c2ccc(OCC3COC(Cn4ccnc4)(c4ccc(F)cc4F)O3)cc2)CC1 (mixture of isomers) [Ex. 150] | 12.5 | 100 | >100 | >100 | 0.39 | – | – | – | – | – | – | – | – | – | – | – | – | – | – | – | Minimal inhibitory concentration(MIC), C. krusei K. 11655 (Candida krusei K. 11655): 0.78 µg/mL; Minimal inhibitory concentration(MIC), C. parapsitosis A. 7330 [5]: 1.56 µg/mL; Minimal inhibitory concentration(MIC), C. pseudotropicalis K. 11658 [6]: 0.78 µg/mL; Minimal inhibitory concentration(MIC), C. tropicalis A. 13803 [7]: >100 µg/mL; Minimal inhibitory concentration(MIC), Cry. neoformans A. 34144 [8]: 1.56 µg/mL; Minimal inhibitory concentration(MIC), Cry. neoformans B. 42419 [9]: 0.39 µg/mL; Minimal inhibitory concentration(MIC), Cry. neoformans IFM. 40092 [10]: ≦0.10 μg/ml; Minimal inhibitory concentration(MIC), T. glabrata B. 16205 [11]: 50.0 µg/mL; Minimal inhibitory concentration(MIC), T. mentagrophytes A. 9129 [12]: 3.13 µg/mL; Minimal inhibitory concentration(MIC), T. mentagrophytes B. 32663 [13]: ≦0.10 μg/ml
FC(=Cc1ccccc1)OC[C@H]1CO[C@](Cn2ccnc2)(c2ccc(Cl)cc2Cl)O1 (relative stereo) [Example 1, (E&Z) 1-[cis-2-(2,4-dichlorophenyl)-2-(1H-1-imidazolylmethyl)-1,3-dioxolan-4-ylmethoxy]-1-fluoro-2-phenyl-1-ethene] | – | – | – | – | – | 1.56 (≈ 3.47 µM) | 1.56 (≈ 3.47 µM) | 25.0 (≈ 55.6 µM) | 25.0 (≈ 55.6 µM) | 3.13 (≈ 6.97 µM) | 6.25 (≈ 13.9 µM) | 6.25 (≈ 13.9 µM) | 6.25 (≈ 13.9 µM) | 50.0 (≈ 111 µM) | 0.39 (≈ 0.868 µM) | 0.39 (≈ 0.868 µM) | 0.20 (≈ 0.445 µM) | 25.0 (≈ 55.6 µM) | ≦0.10 μg/ml | 0.20 (≈ 0.445 µM) | –
Cc1cccc(C=C(F)OCC2COC(Cn3ccnc3)(c3ccc(Cl)cc3Cl)O2)c1 (stereo not drawn) [Ex. 2] | – | – | – | – | – | 3.13 (≈ 6.76 µM) | 3.13 (≈ 6.76 µM) | 6.25 (≈ 13.5 µM) | 6.25 (≈ 13.5 µM) | 0.78 (≈ 1.68 µM) | 12.5 (≈ 27 µM) | 12.5 (≈ 27 µM) | 12.5 (≈ 27 µM) | 25.0 (≈ 54 µM) | 3.13 (≈ 6.76 µM) | 3.13 (≈ 6.76 µM) | 1.56 (≈ 3.37 µM) | 6.25 (≈ 13.5 µM) | 1.56 µg/mL (≈ 3.37 µM) | 1.56 (≈ 3.37 µM) | –
Cc1ccc(C=C(F)OCC2COC(Cn3ccnc3)(c3ccc(Cl)cc3Cl)O2)cc1 (stereo not drawn) [Ex. 3] | – | – | – | – | – | 3.13 (≈ 6.76 µM) | 3.13 (≈ 6.76 µM) | 12.5 (≈ 27 µM) | 25.0 (≈ 54 µM) | 0.78 (≈ 1.68 µM) | 6.25 (≈ 13.5 µM) | 6.25 (≈ 13.5 µM) | 6.25 (≈ 13.5 µM) | 25.0 (≈ 54 µM) | 0.39 (≈ 0.842 µM) | 3.13 (≈ 6.76 µM) | 1.56 (≈ 3.37 µM) | 3.13 (≈ 6.76 µM) | 1.56 µg/mL (≈ 3.37 µM) | 1.56 (≈ 3.37 µM) | –
CCc1ccc(C=C(F)OCC2COC(Cn3ccnc3)(c3ccc(Cl)cc3Cl)O2)cc1 (stereo not drawn) [Ex. 4] | – | – | – | – | – | 6.25 (≈ 13.1 µM) | 6.25 (≈ 13.1 µM) | 12.5 (≈ 26.2 µM) | 6.25 (≈ 13.1 µM) | 1.56 (≈ 3.27 µM) | 6.25 (≈ 13.1 µM) | 12.5 (≈ 26.2 µM) | 6.25 (≈ 13.1 µM) | 12.5 (≈ 26.2 µM) | 3.13 (≈ 6.56 µM) | 3.13 (≈ 6.56 µM) | 1.56 (≈ 3.27 µM) | 6.25 (≈ 13.1 µM) | 3.13 µg/mL (≈ 6.56 µM) | 1.56 (≈ 3.27 µM) | –
Cc1ccc(C=C(F)OCC2COC(Cn3ccnc3)(c3ccc(Cl)cc3Cl)O2)cc1C (stereo not drawn) [Ex. 5] | – | – | – | – | – | 6.25 (≈ 13.1 µM) | 6.25 (≈ 13.1 µM) | 12.5 (≈ 26.2 µM) | 12.5 (≈ 26.2 µM) | 0.78 (≈ 1.63 µM) | 12.5 (≈ 26.2 µM) | 12.5 (≈ 26.2 µM) | 12.5 (≈ 26.2 µM) | 12.5 (≈ 26.2 µM) | 3.13 (≈ 6.56 µM) | 3.13 (≈ 6.56 µM) | 1.56 (≈ 3.27 µM) | 6.25 (≈ 13.1 µM) | 3.13 µg/mL (≈ 6.56 µM) | 3.13 (≈ 6.56 µM) | –
